In EP2253620B1, “SUBSTITUTED 3-CYANOQUINOLINES AS PROTEIN TYROSINE KINASES INHIBITORS” (Wyeth Holdings LLC, priority 1998, dated 2000):
In brackets after ≈: the same amount, converted by molar mass.

Columns and labels:
[1] = target: T1, epidermal growth factor receptor kinase (Homo sapiens, UniProt P00533); test: Inhibition of Epidermal Growth Factor Receptor Kinase (EGF-R) using recombinant enzyme; format: biochemical; conditions: averages of the individual determinations
T1 construct: containing the EGFR cDNA encoding amino acids 645 - 1186 preceded by Met-Ala-(His)6; made in house; host or cells: Sf9 insect cells, recombinant baculovirus vHcEGFR52

Her2/3T3 = test: Inhibition of Cancer Cell Growth as Measured by Cell Number; format: cell-based; conditions: 48 hours exposure, Sulforhodamine B
Procedure: (§1) Inhibition of Cancer Cell Growth as Measured bv Cell Number
(§2) Human tumor cell lines were plated in 96-well plates (250 µl/well, 1-6 x 10^4 cells/ml) in RPMI 1640 medium, containing 5% FBS (Fetal Bovine Serum). […] After 48 hours exposure to test compounds, cells were fixed with trichloroacetic acid, and stained with Sulforhodamine B. After washing with trichloroacetic acid, bound dye was solubilized in 10 mM Tris base and optical density was determined using plate reader. Under conditions of the assay the optical density is proportional to the number of cells in the well. […] The test procedure is described in details by Philip Skehan et. al, J.Natl. Canc. Inst., 82, 1107-1112 (1990). […] Information about some of the cell lines used in these test procedures is available from the American Type Tissue Collection: Cell Lines and Hybridomas, 1994 Reference Guide, 8th Edition.

3T3 = test: as above; format: cell-based; conditions: 48 hours exposure, Sulforhodamine B; for IC50: Mus musculus, NIH3T3
Procedure: as §1, §2

SKBR3 = test: as above; format: cell-based, Human; conditions: 48 hours exposure, Sulforhodamine B; for IC50: Homo sapiens, SK-BR-3
Procedure: as §1, §2

A431 = test: as above; format: cell-based, Human; conditions: 48 hours exposure, Sulforhodamine B; for IC50: Homo sapiens, A-431
Procedure: as §1, §2

SW620 = test: as above; format: cell-based, Human; conditions: 48 hours exposure, Sulforhodamine B; for IC50: Homo sapiens, SW-620
Procedure: as §1, §2

MDAMB435 = test: as above; format: cell-based, Human; conditions: 48 hours exposure, Sulforhodamine B; for IC50: Homo sapiens, MDA-MB-435
Procedure: as §1, §2

[2] = system: Human Epidermoid Tumors (A431); test: In Vivo Inhibition of the Growth of Human Epidermoid Tumors (A431) in mice; conditions: for Relative Tumor Growth Day 7 / % T/C Day 7 / Relative Tumor Growth Day 14 / % T/C Day 14 / Relative Tumor Growth Day 21 / % T/C Day 21 / Relative Tumor Growth Day 28 / % T/C Day 28 / S/T (# of Survivors/# of Treated) / Relative Tumor Growth Day 20 / % T/C Day 20: days 1 through 10; for % T/C Day 7 / % T/C Day 14 / % T/C Day 21 / % T/C Day 28 / % T/C Day 20: * = p < 0.01; for S/T (# of Survivors/# of Treated): Day +28 post tumor staging
Procedure: In Vivo Inhibition of the Growth of Human Epidermoid Tumors (A431)
BALB/c nu/nu female mice (Charles River, Wilmington, MA) were used in the in vivo standard pharmacological test procedures. Human epidermoid carcinoma cells A-431 (American Type Culture Collection, Rockville, Maryland # CRL-155) were grown in vitro as described above. A unit of 5 X 10^6 cells were injected SC into mice. […] Control animals received no drug. […] […] The %T/C (Tumor/Control) is determined by dividing the relative tumor growth of the treated group by the relative tumor growth of the placebo group and multiplying by 100.

T1 sequence (P00533 669-1210): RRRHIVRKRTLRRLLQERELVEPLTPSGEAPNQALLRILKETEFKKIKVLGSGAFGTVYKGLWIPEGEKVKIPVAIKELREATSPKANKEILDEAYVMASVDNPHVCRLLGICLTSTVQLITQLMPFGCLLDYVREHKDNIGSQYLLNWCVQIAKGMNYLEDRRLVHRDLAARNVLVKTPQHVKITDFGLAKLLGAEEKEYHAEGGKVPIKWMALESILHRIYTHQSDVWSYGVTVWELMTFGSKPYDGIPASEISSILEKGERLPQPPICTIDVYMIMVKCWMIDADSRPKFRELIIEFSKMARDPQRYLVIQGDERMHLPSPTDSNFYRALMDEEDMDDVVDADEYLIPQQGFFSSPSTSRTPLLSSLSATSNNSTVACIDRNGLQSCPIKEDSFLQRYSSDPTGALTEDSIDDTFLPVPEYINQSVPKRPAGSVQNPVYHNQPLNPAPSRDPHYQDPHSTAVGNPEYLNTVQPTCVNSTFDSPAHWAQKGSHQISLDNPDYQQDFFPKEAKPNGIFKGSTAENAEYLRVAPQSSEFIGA

Structure (SMILES): COCCN(C)CC=CC(=O)Nc1cc2c(Nc3ccc(F)c(Cl)c3)c(C#N)cnc2cc1OC.Cl.Cl [Example 89, 4-[(2-Methoxy-ethyl)-methyl-amino]-but-2-enoic acid [4-(3-chloro-4-fluoro-phenylamino)-3-cyano-7-methoxy-quinolin-6-yl]-amide dihydrochloride]
- IC50 [1]: 0.01 µM
- IC50 (Her2/3T3): 0.192 µg/mL
- IC50 (3T3): 2.04 µg/mL
- IC50 (SKBR3): 0.107 µg/mL
- IC50 (A431): 0.245 µg/mL
- IC50 (SW620): 1.53 µg/mL
- IC50 (MDAMB435): 2.07 µg/mL
- Relative Tumor Growth Day 7 ([2]; Table 5, 10 mg/kg/dose PO): 2.09
- % T/C Day 7 ([2]; Table 5, 10 mg/kg/dose PO): 50* %
- Relative Tumor Growth Day 14 ([2]; Table 5, 10 mg/kg/dose PO): 3.37
- % T/C Day 14 ([2]; Table 5, 10 mg/kg/dose PO): 32* %
- Relative Tumor Growth Day 21 ([2]; Table 5, 10 mg/kg/dose PO): 5.76
- % T/C Day 21 ([2]; Table 5, 10 mg/kg/dose PO): 38* %
- Relative Tumor Growth Day 28 ([2]; Table 5, 10 mg/kg/dose PO): 7.24
- % T/C Day 28 ([2]; Table 5, 10 mg/kg/dose PO): 26* %
- S/T (# of Survivors/# of Treated) ([2]; Table 5, 10 mg/kg/dose PO): 4/5
- Relative Tumor Growth Day 7 ([2]; Table 5, 40 mg/kg/dose PO): 0.49
- % T/C Day 7 ([2]; Table 5, 40 mg/kg/dose PO): 11* %
- Relative Tumor Growth Day 14 ([2]; Table 5, 40 mg/kg/dose PO): 0.58
- % T/C Day 14 ([2]; Table 5, 40 mg/kg/dose PO): 6* %
- Relative Tumor Growth Day 21 ([2]; Table 5, 40 mg/kg/dose PO): 3.11
- % T/C Day 21 ([2]; Table 5, 40 mg/kg/dose PO): 21* %
- Relative Tumor Growth Day 28 ([2]; Table 5, 40 mg/kg/dose PO): 7.20
- % T/C Day 28 ([2]; Table 5, 40 mg/kg/dose PO): 26* %
- S/T (# of Survivors/# of Treated) ([2]; Table 5, 40 mg/kg/dose PO): 5/5
- inhibition of tumor growth in vivo ([2]; given orally at 40 mg/Kg and 10 mg/Kg): effective inhibitor of tumor growth in vivo

Structure (SMILES): COc1cc2ncc(C#N)c(Nc3ccc(F)c(Cl)c3)c2cc1NC(=O)C=CCN1CCCC(CO)C1.Cl (stereo not shown) [Example 91, 4-(3-Hydroxymethyl-piperidin-1-yl)-but-2-enoic acid [4-(3-chloro-4-fluoro-phenylamino)-3-cyano-7-methoxy-quinolin-6-yl]-amide hydrochloride]
- IC50 [1]: 0.015 µM
- IC50 (Her2/3T3): 0.375 µg/mL
- IC50 (3T3): 2.87 µg/mL
- IC50 (SKBR3): 0.181 µg/mL
- IC50 (A431): 0.232 µg/mL
- IC50 (SW620): 1.73 µg/mL
- IC50 (MDAMB435): 1.83 µg/mL

Structure (SMILES): COc1cc2ncc(C#N)c(Nc3ccc(F)c(Cl)c3)c2cc1NC(=O)C=CCN1CCC2(CC1)OCCO2 [Example 92, 4-(1,4-Dioxa-8-aza-spiror[4.5]dec-8-yl)-but-2-enoic acid [4-(3-chloro-4-fluoro-phenylamino)-3-cvano-7-methox-quinolin-6-yl]-amide]
- IC50 Her2/3T3 (Her2/3T3): 0.35 µg/mL (≈ 0.634 µM)
- IC50 3T3 (3T3): 2.79 µg/mL (≈ 5.05 µM)
- IC50 SKBR3 (SKBR3): 0.188 µg/mL (≈ 0.341 µM)
- IC50 A431 (A431): 0.283 µg/mL (≈ 0.513 µM)
- IC50 SW620 (SW620): 2.51 µg/mL (≈ 4.55 µM)
- IC50 MDAMB435 (MDAMB435): 3.32 µg/mL (≈ 6.01 µM)
- Relative Tumor Growth Day 7 ([2]; Table 4, 10 mg/kg/dose PO): 3.94
- % T/C Day 7 ([2]; Table 4, 10 mg/kg/dose PO): 72%
- Relative Tumor Growth Day 14 ([2]; Table 4, 10 mg/kg/dose PO): 10.41
- % T/C Day 14 ([2]; Table 4, 10 mg/kg/dose PO): 100%
- Relative Tumor Growth Day 20 ([2]; Table 4, 10 mg/kg/dose PO): 14.76
- % T/C Day 20 ([2]; Table 4, 10 mg/kg/dose PO): 119%
- Relative Tumor Growth Day 28 ([2]; Table 4, 10 mg/kg/dose PO): 22.51
- % T/C Day 28 ([2]; Table 4, 10 mg/kg/dose PO): 159%
- S/T (# of Survivors/# of Treated) ([2]; Table 4, 10 mg/kg/dose PO): 5/5
- Relative Tumor Growth Day 7 ([2]; Table 4, 40 mg/kg/dose PO): 1.49
- % T/C Day 7 ([2]; Table 4, 40 mg/kg/dose PO): 27* %
- Relative Tumor Growth Day 14 ([2]; Table 4, 40 mg/kg/dose PO): 1.58
- % T/C Day 14 ([2]; Table 4, 40 mg/kg/dose PO): 15* %
- Relative Tumor Growth Day 20 ([2]; Table 4, 40 mg/kg/dose PO): 2.60
- % T/C Day 20 ([2]; Table 4, 40 mg/kg/dose PO): 21* %
- Relative Tumor Growth Day 28 ([2]; Table 4, 40 mg/kg/dose PO): 6.22
- % T/C Day 28 ([2]; Table 4, 40 mg/kg/dose PO): 44%
- S/T (# of Survivors/# of Treated) ([2]; Table 4, 40 mg/kg/dose PO): 5/5
- inhibition of tumor growth in vivo ([2]; given orally at 40 mg/Kg): effective inhibitor of tumor growth in vivo
